According to US11925612B2, “Bactericidal and virucidal pharmaceutical composition” (Quimica Luar SRL, priority 2015, dated 2024):
Like-named read-outs stand apart in the source and are kept apart here.

Tests used:
P. aeruginosa = experiment: Bactericidal test: CFU count after incubation in PBS buffer; assay type: cell-based, Pseudomonas aeruginosa
[1] = test system: BVDV bovine diarrhea virus; assay type: cell-based; conditions: Ibuprofen at 50 mM, virus incubated 60 minutes at 37° C.
[2] = test system: vesicular stomatitis virus (VSV); assay type: cell-based; conditions: Ibuprofen at 50 mM, virus incubated 60 minutes at 37° C.
[3] = solubilised in water; cited from earlier work
[4] = test system: Rubella virus strain (MV); assay type: cell-based; conditions: Ibuprofen at 50 mM, virus incubated 60 minutes at 37° C.
[5] = test system: Herpes Simplex 1 virus (HSV); assay type: cell-based; conditions: Ibuprofen at 50 mM, virus incubated 60 minutes at 37° C.
Burkhordelia cepacia = assay type: cell-based; conditions: 4 h incubation at 37° C., control 130,000, Example 10
Protocol: In this case, tests were run on a non-nutritive liquid carrier (buffer solution) wherein the antimicrobial agent is mixed with quantified inocula of pure bacterial cultures. After different incubation times, the material is seeded on agar plates to perform quantification assays on the number of bacterias surviving the treatment.
When the time for each assay finished, aliquots of 100 uL and decimal dilutions of each tube which were seeded on petri dishes for the direct count of colony forming units (CFU) in Mueller Hinton agar (MHA), using pour-plating or spread-plating standard methods.
During testing, the medium was stored in thermostatic bath between 45-50° C. because the seeding technique requires imbibing and integrating bacteria in the medium.

[6] = test system: artificial biofilm of P. aeruginosa; experiment: Antimicrobial effect on artificial biofilm (2% alginate solution); assay type: cell-based, Pseudomonas aeruginosa; conditions: Biofilm (2% alginate) + ionic strength (1 M NaCl), 4 hours at 37° C., control 2,000,000, Example 21
Protocol: Work consisted of incubating bacterial populations of a known load in terms of CFU/mL with the compounds mentioned in different molar concentrations. In vitro test batteries were organized at different doses or concentrations and in 1.5 mL Eppendorf tubes without the addition of culture medium. To this purpose, a PBS 100 mM phosphate buffer was used to maintain physiological conditions throughout the period of each test at 37° C. […] Each plate was added with 5 uL of a solution of 2,3,5-metabolic dye triphenyltetrazolium of chloride (TTC) 1% to enhance the contrast of colonies. Plates were incubated in inverted position, in a culture stove for 24-48 hours at 37° C. and subsequently the direct count was done, adjusted by dilution factors and seeding to report results in terms of CFU/mL. […] Treatments lasted 4 hours at 37° C.

For `[Cl-].[Na+]` [NaCl], the “P. aeruginosa (UFC/mL ± 10)” value (P. aeruginosa; NaCl 0.01 M, 4 hours at 37° C., control 2,000,000, Example 11) was 2,000,000 UFC/mL, the “P. aeruginosa (UFC/mL ± 10)” value (P. aeruginosa; NaCl 0.025 M, 4 hours at 37° C., control 2,000,000, Example 11) was 2,000,000 UFC/mL and the “P. aeruginosa (UFC/mL ± 10)” value (P. aeruginosa; NaCl 0.1 M, 4 hours at 37° C., control 2,000,000, Example 11) was 2,000,000 UFC/mL. The “P. aeruginosa (UFC/mL ± 10)” value (P. aeruginosa; NaCl 0.25 M, 4 hours at 37° C., control 2,000,000, Example 11) was 1,800,000 UFC/mL, the “P. aeruginosa (UFC/mL ± 10)” value (P. aeruginosa; NaCl 0.5 M (line between 0.025 and 0.1), 4 hours at 37° C., control 2,000,000, Example 11) was 2,000,000 UFC/mL and the “P. aeruginosa (UFC/mL ± 10)” value (P. aeruginosa; NaCl 0.5 M (line between 0.25 and 1), 4 hours at 37° C., control 2,000,000, Example 11) was 1,600,000 UFC/mL. For the same compound, the “P. aeruginosa (UFC/mL ± 10)” value (P. aeruginosa; NaCl 1 M, 4 hours at 37° C., control 2,000,000, Example 11) was 1,000,000 UFC/mL.
In the case of `CC(C)Cc1ccc(C(C)C(=O)O)cc1` (centres unmarked) [Ibuprofen, ibuprofen], the “Reduction of viral level” value [1] is given as >6.5 TCID50 mL-1, the “Reduction of viral level” value [2] is given as >7.7 TCID50 mL-1 and the “critical micelle concentration (CMC)” value [3] is given as “about 180 mM”. The “Reduction of viral level” value [4] was >5.0 TCID50 mL-1 and the “Reduction of viral level” value [5] was >6.9 TCID50 mL-1.
In the case of `CC(C)Cc1ccc(C(C)C(=O)O)cc1` (centres unmarked) [IBU-H, PROTONATED IBUPROFEN], the “P. aeruginosa (UFC/mL ± 10)” value (P. aeruginosa; IBU 10 mM, 4 h at 37° C., control 1,700,000, Example 4) is reported as 480,000 UFC/mL, the “P. aeruginosa (UFC/mL ± 10)” value (P. aeruginosa; IBU 20 mM, 4 h at 37° C., control 1,700,000, Example 4) is reported as 200,000 UFC/mL and the “P. aeruginosa (UFC/mL ± 10)” value (P. aeruginosa; IBU 50 mM, 4 h at 37° C., control 1,700,000, Example 4) is reported as 1000 UFC/mL. The “P. aeruginosa (UFC/mL ± 10)” value (P. aeruginosa; IBU 100 mM, 4 h at 37° C., control 1,700,000, Example 4) was 10 UFC/mL.
With `COc1ccc2cc([C@H](C)C(=O)O)ccc2c1` [Naproxen] the “B. cepacia (UFC/mL ± 10)” value (Burkhordelia cepacia; Naproxen 10 mM) was 125,000 UFC/mL, the “B. cepacia (UFC/mL ± 10)” value (Burkhordelia cepacia; Naproxen 25 mM) was 38,000 UFC/mL and the “B. cepacia (UFC/mL ± 10)” value (Burkhordelia cepacia; Naproxen 50 mM) was 31,000 UFC/mL. For the same compound, the “B. cepacia (UFC/mL ± 10)” value (Burkhordelia cepacia; Naproxen 100 mM) was 1,300 UFC/mL.
With `NC[C@H]1O[C@H](O[C@H]2[C@H](O)[C@@H](O[C@H]3O[C@H](CO)[C@@H](O)[C@H](N)[C@H]3O)[C@H](N)C[C@@H]2N)[C@H](N)C[C@@H]1O` [Tobramycin, tobramycin] the “P. aeruginosa (UFC/mL ± 10)” value (P. aeruginosa; Tobramycin 0.25 mM with ClNa (1M), 4 h at 37° C., control 1,000,000, Example 20) was 400,000 UFC/mL, the “P. aeruginosa (UFC/mL ± 10)” value (P. aeruginosa; Tobramycin 1 mM with ClNa (1M), 4 h at 37° C., control 1,000,000, Example 20) was 10 UFC/mL and the “P. aeruginosa (UFC/mL ± 10)” value (P. aeruginosa; Tobramycin 1 mM, 1 hour, 37° C., control 2,000,000, Example 19) was 1,000,000 UFC/mL. The “P. aeruginosa (UFC/mL ± 10)” value (P. aeruginosa; Tobramycin 1 mM, 4 hours, 37° C., control 2,000,000, Example 19) was 30,000 UFC/mL, the “P. aeruginosa (UFC/mL ± 10)” value (P. aeruginosa; Tobramycin 1 mM, O.N., 37° C., control 2,000,000, Example 19) was 30,000 UFC/mL and the “P. aeruginosa (UFC/mL ± 10)” value (P. aeruginosa; Tobramycin 2.5 mM, 1 hour, 37° C., control 2,000,000, Example 19) was 60,000 UFC/mL. For the same compound, the “P. aeruginosa (UFC/mL ± 10)” value (P. aeruginosa; Tobramycin 2.5 mM, 4 hours, 37° C., control 2,000,000, Example 19) was 20,000 UFC/mL, the “P. aeruginosa (UFC/mL ± 10)” value (P. aeruginosa; Tobramycin 2.5 mM, O.N., 37° C., control 2,000,000, Example 19) was 10 UFC/mL and the “P. aeruginosa (UFC/mL ± 10)” value (P. aeruginosa; Tobramycin 5 mM with ClNa (1M), 4 h at 37° C., control 1,000,000, Example 20) was 10 UFC/mL. For the same compound, the “P. aeruginosa (UFC/mL ± 10)” value (P. aeruginosa; Tobramycin 5 mM, 1 hour, 37° C., control 2,000,000, Example 19) was 30,000 UFC/mL, the “P. aeruginosa (UFC/mL ± 10)” value (P. aeruginosa; Tobramycin 5 mM, 4 hours, 37° C., control 2,000,000, Example 19) was 1,000 UFC/mL and the “P. aeruginosa (UFC/mL ± 10)” value (P. aeruginosa; Tobramycin 5 mM, O.N., 37° C., control 2,000,000, Example 19) was 10 UFC/mL. The “P. aeruginosa (UFC/mL ± 10)” value (P. aeruginosa; Tobramycin 10 mM with ClNa (1M), 4 h at 37° C., control 1,000,000, Example 20) was 10 UFC/mL, the “P. aeruginosa (UFC/mL ± 10)” value (P. aeruginosa; Tobramycin 10 mM, 1 hour, 37° C., control 2,000,000, Example 19) was 1,000 UFC/mL and the “P. aeruginosa (UFC/mL ± 10)” value (P. aeruginosa; Tobramycin 10 mM, 4 hours, 37° C., control 2,000,000, Example 19) was 10 UFC/mL. For the same compound, the “P. aeruginosa (UFC/mL ± 10)” value (P. aeruginosa; Tobramycin 10 mM, O.N., 37° C., control 2,000,000, Example 19) was 10 UFC/mL, the “P. aeruginosa (UFC/mL ± 10)” value ([6]; 5 mM) was 10 UFC/mL and the “P. aeruginosa (UFC/mL ± 10)” value ([6]; 10 mM) was 10 UFC/mL.
